The record followed here is paper PMC9814901, “One-pot synthesis of cyclic-aminotropiminium carboxylate derivatives with DNA binding and anticancer properties” (Communications Chemistry, 2022).

The subject of data set [1] is HeLa cells. As to the kind of experiment: cells. On the set-up: MTS cell viability assay, absorbance at 490 nm. The following applies: Homo sapiens, 18 h; read-out: IC50 concentration in (µM), HeLa. On the procedure:
MTS assay (CellTiter 96® AQueous One Solution Cell Proliferation Assay (Promega, USA) was used to determine the cell viability. HeLa and HEK293 cells (20,000 cells in each well) were plated in 96 well plate and treated with 6e, 6j, and 6n varying concentrations of the compounds ranging from 10 nM to 50 μM for 18 h. The assay was carried out according to the manufacturer’s instructions. Finally, the plate was read in Varioskan™ LUX multimode microplate reader (Thermo Fisher Scientific) at 490 nm. We investigated the effect of nine cATC derivatives (6b/6d/6e/6f/6i/6j/6k/6l/6n) on cell viability in cancer cell-line HeLa and transformed normal cell-line HEK293. We treated cells with the varying concentrations of the compounds ranging from 10 nM to 50 μM for 18 h (optimized). […] Cell scavenging for 6e and 6j at 50 μM was 84.74% and 89.87%, respectively, and for 6n at 30 μM it was 75.43%. Corresponding cell viability was 15.25%, 10.13% and, 24.56%, respectively. Fluorescence signal became visible inside cells at 12 μM, 12 μM, and 20 μM concentrations for 6e, 6j, and 6n, respectively (SM, Figs. S31, S34, S37). […] Scavenging activity for 6e, 6j, and 6n was 61.1%, 18.23%, and 30.1%, respectively at 30 μM concentration (Fig. 5D–F). Corresponding cell viability was 38.82%, 81.76%, and 69.86%, respectively. The IC50 value of all the compounds was at the micromolar (μM) level which is shown in the Supplemental Material (Table S9 and S10).

For data set [2], the system named is HeLa cells. The data set can be described thus: MTS cell viability assay in HeLa. Format: cell-based. Conditions: 10 nM to 50 μM, 18 h. The method, then: We investigated the effect of nine cATC derivatives (6b/6d/6e/6f/6i/6j/6k/6l/6n) on cell viability in cancer cell-line HeLa and transformed normal cell-line HEK293. We treated cells with the varying concentrations of the compounds ranging from 10 nM to 50 μM for 18 h (optimized).
MTS assay (CellTiter 96® AQueous One Solution Cell Proliferation Assay (Promega, USA) was used to determine the cell viability. HeLa and HEK293 cells (20,000 cells in each well) were plated in 96 well plate and treated with 6e, 6j, and 6n varying concentrations of the compounds ranging from 10 nM to 50 μM for 18 h. The assay was carried out according to the manufacturer’s instructions. Finally, the plate was read in Varioskan™ LUX multimode microplate reader (Thermo Fisher Scientific) at 490 nm.
Cell scavenging activity was calculated using the following formula:
OD(490nm) (control) – OD(490nm) (Test)/OD(490nm) (control) × 100%
Cell Viability of the cell was calculated using the following formula: […]
On the technique in general: Formazan colour is commonly taken as a measure of viable cells.

For another data set, the system named is ct-DNA duplex. The data set can be described thus: Circular dichroism of ct-DNA with cATC derivatives. The data set is classed as binding. Conditions: increasing concentration of cATC derivatives. An excerpt:
Further, we examined the effect of cATC derivatives (6a/6e/6j/6n) on the ct-DNA duplex structure by circular dichroism (CD) studies. We recorded the CD spectra of ct-DNA with the increasing concentration of cATC derivatives (SM, Fig. S24). […] Next, we examined the binding site of cATC derivative (ligand) at the DNA duplex structure by using AutoDock-Vina, a well-reported computational docking program. We performed docking of cATC derivatives (6a/6d/6k) crystal structure (ligand) with dodecamer DNA duplex crystal structure (PDB ID-1BNA) as the receptor. Our docking results strongly support the non-covalent interaction of cATC derivatives (6a/6d/6k) at the DNA-minor groove with the binding affinity ~7.0 Kcal/mole, mostly hydrophobic interactions (SM, Figs. S25–7, Table S8). […] Overall, cATC derivatives non-covalently bind with DNA duplex through the non-intercalative mode without affecting the native duplex structure. Next, we examined the DNA binding affinity of cATC derivatives (6e/6j/6n) by gel-electrophoresis. The different concentrations of human genomic DNA were treated with EtBr (control) and cATC derivatives (6e/6j/6n) and ran on 1% agarose gel (SM, Fig. S28A–D). […] Further, the Microscale thermophoresis (MST) technique was used to calculate the binding affinities of cATC derivatives (6e/6j/6n) (20 µM) with varying concentrations of human genomic DNA (40 fM to 75 pM).

Consider `COc1cc(OC)cc(C2C(C(=O)[O-])N(CCc3ccccc3)c3ccccc[c+]3N2Cc2ccccc2)c1` (stereo not drawn) [Compound 6b], for which the IC50 in the data set on HeLa cells [1] was above 50 µM. The “effect on HeLa cell proliferation” value with HeLa cells [2] is given as “no or minimal effect”.
As usually defined, the melting point is the temperature, or range, at which the solid turns liquid. Molecule `O=C([O-])C1C(c2ccccc2)N(Cc2ccccc2)[c+]2cccccc2N1CCc1ccccc1` (stereo not drawn) [Compound 6a, N-benzyl-N-phenylethyl phenyl troponyl dihydropyrazinium carboxylate] gave a melting point of 135 to 140 °C. Also, the “effect on B-type duplex CD spectrum of ct-DNA” value with ct-DNA duplex is “almost remained unchanged”.
With `O=C([O-])C1C(C=Cc2ccccc2)N(Cc2ccccc2)[c+]2cccccc2N1CCc1ccccc1` (stereo not drawn) [Compound 6n], the melting point fell in the range of 118 to 120 °C.
Regarding `O=C([O-])C1C(c2ccc([N+](=O)[O-])cc2)N(Cc2ccccc2)[c+]2cccccc2N1CCc1ccccc1` (stereo not drawn) [Compound 6d, N-Benzyl-N-phenylethyl 4-nitrophenyl troponyl dihydrapyrazine carboxylic acid], in the data set with HeLa cells [1], the IC50 is above 50 µM. For the same molecule, the “effect on HeLa cell proliferation” value with HeLa cells [2] is on record as “no or minimal effect”.
Taken in the same sequence, the figures for `O=C([O-])C1C(c2ccc(O)cc2)N(C2CCCCC2)[c+]2cccccc2N1CCc1ccccc1` (stereo not drawn) [Compound 6l] were above 50 µM and “no or minimal effect”.
`C#CCN1[c+]2cccccc2N(CCc2ccccc2)C(C(=O)[O-])C1c1ccccc1` (stereo not drawn) [Compound 6i] had a melting point of 122 to 125 °C. Moreover, the IC50 in the data set with HeLa cells [1] was above 50 µM. The “effect on HeLa cell proliferation” value in the data set on HeLa cells [2] is given as “no or minimal effect”.
On to `N#Cc1ccc(C2C(C(=O)[O-])N(CCc3ccccc3)c3ccccc[c+]3N2Cc2ccccc2)cc1` (stereo not drawn) [Compound 6f], for which, in the data set with HeLa cells [1], the IC50 is above 50 µM. For the same molecule, the “effect on HeLa cell proliferation” value in the data set on HeLa cells [2] is recorded as “no or minimal effect”.
Regarding `CCCCCCCCN1[c+]2cccccc2N(CCc2ccccc2)C(C(=O)[O-])C1c1ccc(F)cc1` (stereo not drawn) [Compound 6k, N-octyl-N-phenylethyl 4-fluorophenyl troponyl dihydrapyrazinium carboxylate], the melting point lay within 123 to 125 °C.
